The target in the assay is T1, human PAH with the R408W mutation (Homo sapiens, UniProt P00439, R408W).
T1 construct: expressed in transfected cells
T1 sequence (P00439 1-452 R408W): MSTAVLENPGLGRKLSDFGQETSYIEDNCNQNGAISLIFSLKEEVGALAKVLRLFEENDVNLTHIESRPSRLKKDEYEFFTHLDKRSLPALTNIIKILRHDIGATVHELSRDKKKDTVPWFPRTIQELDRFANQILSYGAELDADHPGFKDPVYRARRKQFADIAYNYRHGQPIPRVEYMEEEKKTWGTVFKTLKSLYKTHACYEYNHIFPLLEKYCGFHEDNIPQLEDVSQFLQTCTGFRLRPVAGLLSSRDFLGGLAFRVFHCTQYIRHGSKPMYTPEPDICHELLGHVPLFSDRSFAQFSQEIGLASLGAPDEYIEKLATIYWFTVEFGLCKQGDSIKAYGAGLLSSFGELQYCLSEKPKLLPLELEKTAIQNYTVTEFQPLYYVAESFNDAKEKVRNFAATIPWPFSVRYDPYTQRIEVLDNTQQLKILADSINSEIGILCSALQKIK
The assay is described as follows: Cell Based Phenylalanine Flux Assay. The settings on record: A375 cells expressing human R408W PAH; 24 hrs compound incubation; 13C-Tyrosine by LC-MS; average where tested multiple times; read-out: AC50.

Twelve molecules from US20250171438A1 (Agios Pharmaceuticals, Inc., priority 2022, published 2025) can be followed below.

What is called AC50 is the midpoint of the concentration-response curve, whichever way the signal moves.

Regarding `O=C(c1ocnc1C(F)(F)F)N1CC2(CC2)c2[nH]cnc2[C@@H]1c1nc2ccccc2s1` [Example 1667, (R)-(4′-(benzo[d]thiazol-2-yl)spiro[cyclopropane-1,7′-imidazo[4,5-c]pyridin]-5′(1′H,4′H,6′H)-yl)(4-(trifluoromethyl)oxazol-5-yl)methanone], the AC50 was 1000 to 5000 nM.

`O=C(c1ocnc1C(F)(F)F)N1CC2(CC2)c2[nH]cnc2[C@H]1c1nc2ccccc2s1` [Example 1668, (S)-(4′-(benzo[d]thiazol-2-yl)spiro[cyclopropane-1,7′-imidazo[4,5-c]pyridin]-5′(1′H,4′H,6′H)-yl)(4-(trifluoromethyl)oxazol-5-yl)methanone]: the AC50 is < 500 nM.

On to `O=C(c1ocnc1C1CC1)N1CC2(CC2)c2[nH]cnc2[C@H]1c1nc2ccccc2s1` [Example 1669, (S)-(4′-(benzo[d]thiazol-2-yl)spiro[cyclopropane-1,7′-imidazo[4,5-c]pyridin]-5′(1′H,4′H,6′H)-yl)(4-cyclopropyloxazol-5-yl)methanone], for which the AC50 was < 500 nM.

For `O=C(c1ocnc1C1CC1)N1CC2(CC2)c2[nH]cnc2[C@@H]1c1nc2ccccc2s1` [Example 1670, (R)-(4′-(benzo[d]thiazol-2-yl)spiro[cyclopropane-1,7′-imidazo[4,5-c]pyridin]-5′(1′H,4′H,6′H)-yl)(4-cyclopropyloxazol-5-yl)methanone], the AC50 lay within 1000 to 5000 nM.

`Cc1nc(CCCN2CC(F)C2)oc1C(=O)N1CCc2[nH]cnc2[C@H]1c1nc2ccccc2s1` [Example 1671]: the AC50 was 500 to 1000 nM.

Consider `Cc1nc(CCCN2CC(F)C2)oc1C(=O)N1CCc2[nH]cnc2[C@@H]1c1nc2ccccc2s1` [Example 1672, (R)-(4-(benzo[d]thiazol-2-yl)-6,7-dihydro-1H-imidazo[4,5-c]pyridin-5(4H)-yl)(2-(3-(3-fluoroazetidin-1-yl)propyl)-4-methyloxazol-5-yl)methanone], for which the AC50 was > 5000 nM.

Take `N#Cc1nc(OCCC(F)(F)F)oc1C(=O)N1CCc2[nH]cnc2[C@@H]1c1nc2ccccc2s1` [Example 1673, (R)-5-(4-(benzo[d]thiazol-2-yl)-4,5,6,7-tetrahydro-1H-imidazo[4,5-c]pyridine-5-carbonyl)-2-(3,3,3-trifluoropropoxy)oxazole-4-carbonitrile]: the AC50 is > 5000 nM.

With `N#Cc1nc(OCCC(F)(F)F)oc1C(=O)N1CCc2[nH]cnc2[C@H]1c1nc2ccccc2s1` [Example 1674, (S)-5-(4-(benzo[d]thiazol-2-yl)-4,5,6,7-tetrahydro-1H-imidazo[4,5-c]pyridine-5-carbonyl)-2-(3,3,3-trifluoropropoxy)oxazole-4-carbonitrile], the AC50 is 500 to 1000 nM.

As for `CN(C)CCc1nc(C(F)(F)F)c(C(=O)N2CCc3[nH]cnc3[C@H]2c2nc3c(F)cccc3s2)o1` [Example 1675], the AC50 was < 500 nM.

Consider `CN(C)CCc1nc(C(F)(F)F)c(C(=O)N2CCc3[nH]cnc3[C@@H]2c2nc3c(F)cccc3s2)o1` [Example 1676, (R)-(2-(2-(dimethylamino)ethyl)-4-(trifluoromethyl)oxazol-5-yl)(4-(4-fluorobenzo[d]thiazol-2-yl)-6,7-dihydro-1H-imidazo[4,5-c]pyridin-5(4H)-yl)methanone], for which the AC50 was < 500 nM.

For `CC(C)(O)c1ncc(C(=O)N2CC3(CC3)c3[nH]cnc3[C@H]2c2nc3ccccc3s2)o1` [Example 1677, (S)-(4′-(benzo[d]thiazol-2-yl)spiro[cyclopropane-1,7′-imidazo[4,5-c]pyridin]-5′(1′H,4′H,6′H)-yl)(2-(2-hydroxypropan-2-yl)oxazol-5-yl)methanone], the AC50 lay in the range of 500 to 1000 nM.

Consider `CC(C)(O)c1ncc(C(=O)N2CC3(CC3)c3[nH]cnc3[C@@H]2c2nc3ccccc3s2)o1` [Example 1678, (R)-(4′-(benzo[d]thiazol-2-yl)spiro[cyclopropane-1,7′-imidazo[4,5-c]pyridin]-5′(1′H,4′H,6′H)-yl)(2-(2-hydroxypropan-2-yl)oxazol-5-yl)methanone], for which the AC50 fell in the range of 1000 to 5000 nM.
